Assay results as given in PubChem BioAssay AID1918994 (Molecular Pharmacology Branch, DTP, NCI, 2023).
Values joined by “and” are separate entries in the source; they are usually repeats but may differ in a detail not shown here. Equal entries are not always repeated. Values belong to the compound of their own block, whether it stands above or below them.

System: 292921-168-R-J2-PDC complex spheroid growth
Assay: Anticancer human tumor 292921-168-R-J2-PDC patient-derived pancreatic carcinoma cell line growth inhibition [AhR]
Details: for viability, T/C: stronger effect = lower value; for IC50: curve of compound
Description: Multicellular complex tumor spheroid response to aryl hydrocarbon receptor antagonists in combination with a variety of drugs and investigational agents in selected tumor cell lines
The current study was undertaken to assess response to aryl hydrocarbon receptor antagonists in combination with standard-of-care drugs and investigational agents in solid tumor complex spheroid models. Complex spheroids include a stromal component modeled by human endothelial cells (HUVEC) and fibroblasts modeled by human mesenchymal stem cells (MSCs). The concentration ranges selected for each drug and investigational agent were based upon clinically achievable concentrations if the clinical Cmax of the agent was known.
Compounds. The drugs and investigational agents: BAY 2416964 (NSC825713), GNF351 (NSC835774), CH-223191 (NSC835775), CPI-455 (NSC825282), aza-TdCyd (NSC777586), decitabine (NSC127716), belinostat (NSC758774), entinostat (NSC756642), pevonedistat (NSC761192), tazemetostat (NSC777109), talazoparib (NSC765396), olaparib (NSC753686), selinexor (NSC780203), nedisertib (M3814, NSC802822), bortezomib (NSC756655), venetoclax (NSC766270), doxorubicin (NSC123127), elimusertib (BAY189344, NSC800525), ceralasertib (AZD6738, NSC777638), TAK-243 (NSC785004), alisertib (NSC759677), etoposide (NSC141540), topotecan (NSC609699), eribulin (NSC707389), gemcitabine (NSC613327), carboplatin (NSC241240), cisplatin (NSC119875), and SN-38 (NSC673596) were obtained from the National Cancer Institute (NCI) Developmental Therapeutics Program Chemical Repository (32). The FDA-approved anticancer drug set is available from the Developmental Therapeutics Program at https://dtp.cancer.gov/organization/dscb/obtaining/available plates.htm. […] The stock solutions were prepared in dimethyl sulfoxide (DMSO, Sigma-Aldrich, St. Louis, MO, cat. D2650), except for the platinum compounds which were prepared in saline (Quality Biological, Gaithersburg, MD, cat. 114-055-101), at 800-fold the tested concentration and stored at -70 degrees C prior to their use. All drugs and investigational agents were tested over a range starting from a high concentration at or near the clinical Cmax and decreasing in half-log increments. If the clinical Cmax for an agent had not been determined, the highest concentration tested was 10 microM (Table 1).
Cell Culture. All cells were maintained in an incubator at 37 degrees C and 5% CO2 with 95% humidity. The PDC lines were cultured according to standard operating procedures established by the NCI PDMR (https://pdmr.cancer.gov). Briefly, all PDCs were thawed and cultured in Matrigel-coated flasks prepared with a working solution of 1X Ham's F-12 nutrient mix, without supplementation (Invitrogen, Waltham, MA, cat. 11765054), 100 U/mL penicillin-streptomycin (Invitrogen, cat. 15140122), and 2.5% Matrigel (Corning Inc., Corning, NY, cat. 354248) for the first three passages. All PDCs were cultured in complete DMEM/F-12 media containing advanced DMEM/F-12 (Invitrogen, cat. 12634028), 4.9% defined fetal bovine serum, heat inactivated (HyClone Laboratories Inc., Logan, UT, cat. SH30070.03HI), 389 ng/mL hydrocortisone (Sigma-Aldrich, cat. H4001), 9.7 ng/mL human EGF recombinant protein (Invitrogen, cat. PHG0313), 23.4 microg/mL adenine (Sigma-Aldrich, cat. A2786), 97.3 U/mL penicillin-streptomycin (Invitrogen, cat. 15140122), 1.9 mM L-glutamine (Invitrogen, cat. 25030081), and 9.7 microM Y-27632 dihydrochloride (Tocris Bioscience, Bristol, United Kingdom, cat. 1254). The PDCs were cultured in complete DMEM/F12 media without 10 microM Y-27632 dihydrochloride for at least two passages prior to the screen. The established cell lines NCI-H1341 and […] were cultured in DMEM/F-12, HEPES (Invitrogen, cat. 11330032), 5% defined fetal bovine serum (HyClone Laboratories Inc., cat. SH30070.03), ITS premix universal culture supplement [insulin (5 microg/mL), transferrin (5 microg/mL), and selenious acid (5 ng/mL)] […]
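Note: spheroids exposed to compounds for seven days after three days of growth.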

Structure (SMILES): COc1ccc([C@@H](O)c2cc(-c3ncnc4cc(N5CCOCC5)ccc34)c(F)cc2Cl)nn1
viability, T/C (compound 0.0316 µM): 92.7% and 96.3% and 98.8%
viability, T/C (compound 0.1 µM): 99.2% and 95.5% and 101%
viability, T/C (compound 0.316 µM): 88% and 86.4% and 84.7%
viability, T/C (compound 1 µM): 64.6% and 70.2% and 62.2%
viability, T/C (compound 3.16 µM): 42.2% and 44.8% and 43.1%
viability, T/C (compound 10 µM): 27.6% and 24.4% and 25.5%
IC50: 2060 nM and 2490 nM and 2000 nM

Structure (SMILES): Cc1cncc(-c2nc(NCCc3c[nH]c4ccccc34)c3ncn(C(C)C)c3n2)c1
viability, T/C (compound 0.1 µM): 90.8% [middle of 20 runs]
viability, T/C (compound 0.316 µM): 89.1% [middle of 20 runs]
viability, T/C (compound 1 µM): 80.5% [middle of 20 runs]
viability, T/C (compound 10 µM): 47.8% [middle of 20 runs]

Structure (SMILES): Cn1ncnc1C1c2n[nH]c(=O)c3cc(F)cc(c23)NC1c1ccc(F)cc1 (stereo unspecified)
viability, T/C (compound 0.000316 µM): 101% and 103% and 106%
viability, T/C (compound 0.001 µM): 103% and 111% and 95.4%
viability, T/C (compound 0.00316 µM): 96.3% and 91.7% and 97.4%
viability, T/C (compound 0.01 µM): 96.2% and 96.3% and 97.7%
viability, T/C (compound 0.0316 µM): 88% and 97.5% and 90.3%
viability, T/C (compound 0.1 µM): 91.5% and 80.2% and 86%
IC50: > 100 nM

Structure (SMILES): Nc1ncn(C2CC(O)C(CO)O2)c(=O)n1 (stereo unspecified)
viability, T/C (compound 0.00316 µM): 107% and 102% and 96.8%
viability, T/C (compound 0.01 µM): 99.8% and 97.5% and 103%
viability, T/C (compound 0.0316 µM): 95.7% and 100% and 89.4%
viability, T/C (compound 0.1 µM): 93.7% and 93.1% and 77.7%
viability, T/C (compound 0.316 µM): 86.8% and 83% and 89%
viability, T/C (compound 1 µM): 76.3% and 76.8% and 78.2%
IC50: > 1000 nM

Structure (SMILES): Nc1ncn(C2CC(O)C(CO)S2)c(=O)n1 (stereo unspecified)
viability, T/C (compound 0.000949 µM): 108% and 106% and 99.4%
viability, T/C (compound 0.003 µM): 111% and 90.8% and 101%
viability, T/C (compound 0.00949 µM): 107% and 98.6% and 93.5%
viability, T/C (compound 0.03 µM): 90.9% and 104% and 96.8%
viability, T/C (compound 0.0949 µM): 90.8% and 93.8% and 95.5%
viability, T/C (compound 0.3 µM): 88.6% and 81.2% and 78.3%
IC50: > 300 nM

Structure (SMILES): O=C(C=Cc1cccc(S(=O)(=O)Nc2ccccc2)c1)NO
viability, T/C (compound 0.0316 µM): 68.6% and 72.8% and 73.1%
viability, T/C (compound 0.1 µM): 60.2% and 62% and 60%
viability, T/C (compound 0.316 µM): 45.1% and 51.2% and 40.3%
viability, T/C (compound 1 µM): 40.8% and 41.1% and 34.5%
viability, T/C (compound 3.16 µM): 36.6% and 37.4% and 31.4%
viability, T/C (compound 10 µM): 3.45% and 3.29% and 1.56%
IC50: 424 nM and 553 nM and 249 nM

More lines, main results first:

IC50: < 31.6 nM
Structure (SMILES): COc1cccc2c1C(=O)c1c(O)c3c(c(O)c1C2=O)CC(O)(C(=O)CO)CC3OC1CC(N)C(O)C(C)O1 (stereo unspecified)
viability, T/C (compound 0.0316 µM): 37.4% and 25.9% and 34.4%
viability, T/C (compound 0.1 µM): 26.1% and 17.6% and 21.9%
viability, T/C (compound 0.316 µM): 10.9% and 4.94% and 7.46%
viability, T/C (compound 1 µM): 0.32% (2×) and 0.28%
viability, T/C (compound 3.16 µM): 0.76% (2×) and 0.73%
viability, T/C (compound 10 µM): 2.02% and 2.08% and 3.06%

IC50: 226 nM and 174 nM and 217 nM
Structure (SMILES): NS(=O)(=O)OCC1CC(n2ccc3c(NC4CCc5ccccc54)ncnc32)CC1O (stereo unspecified)
viability, T/C (compound 0.0316 µM): 126% and 115% and 113%
viability, T/C (compound 0.1 µM): 106% and 81.2% and 99.9%
viability, T/C (compound 0.316 µM): 27.1% and 16.2% and 25.9%
viability, T/C (compound 1 µM): 6.6% and 3.53% and 5.82%
viability, T/C (compound 3.16 µM): 5.73% and 3.02% and 4.02%
viability, T/C (compound 10 µM): 5.17% and 3.01% and 3.79%

IC50: 267 nM and 460 nM and 151 nM
Structure (SMILES): Nc1ccccc1NC(=O)c1ccc(CNC(=O)OCc2cccnc2)cc1
viability, T/C (compound 0.0316 µM): 76.9% and 70.7% and 72.6%
viability, T/C (compound 0.1 µM): 61.6% and 61% and 53%
viability, T/C (compound 0.316 µM): 44.2% and 57.2% and 42.1%
viability, T/C (compound 1 µM): 38.7% and 39.4% and 26.1%
viability, T/C (compound 3.16 µM): 24.4% and 26.4% and 21.3%
viability, T/C (compound 10 µM): 11.8% and 10.3% and 8.62%

IC50: < 31.6 nM
Structure (SMILES): Nc1ccn(C2OC(CO)C(O)C2(F)F)c(=O)n1 (stereo unspecified)
viability, T/C (compound 0.0316 µM): 11.7% and 10.6% and 9.71%
viability, T/C (compound 0.1 µM): 9.82% and 10.9% and 7.67%
viability, T/C (compound 0.316 µM): 9.66% and 9.32% and 10.4%
viability, T/C (compound 1 µM): 10.1% and 11.1% and 8.88%
viability, T/C (compound 3.16 µM): 9.41% and 11.4% and 8.79%
viability, T/C (compound 10 µM): 7.29% and 6.09% and 6.67%

IC50: 191 nM and 154 nM and 129 nM
Structure (SMILES): O=C(C=Cn1cnc(-c2cc(C(F)(F)F)cc(C(F)(F)F)c2)n1)NNc1cnccn1
viability, T/C (compound 0.00949 µM): 104% and 95% and 86.6%
viability, T/C (compound 0.03 µM): 97.2% and 93% and 80.9%
viability, T/C (compound 0.0949 µM): 64.4% and 58.7% and 54.5%
viability, T/C (compound 0.3 µM): 39.5% and 34.5% and 32.4%
viability, T/C (compound 0.949 µM): 25.6% and 18.9% and 22.2%
viability, T/C (compound 3 µM): 15.2% and 10.5% and 13.3%

IC50: > 10000 nM
Structure (SMILES): O=C(c1cc(Cc2n[nH]c(=O)c3ccccc23)ccc1F)N1CCN(C(=O)C2CC2)CC1
viability, T/C (compound 0.0316 µM): 110% and 97.3% and 99.3%
viability, T/C (compound 0.1 µM): 110% and 100% and 95.6%
viability, T/C (compound 0.316 µM): 95.5% and 93.5% and 84.8%
viability, T/C (compound 1 µM): 98.6% and 97.8% and 91.6%
viability, T/C (compound 3.16 µM): 102% and 92.5% and 83.3%
viability, T/C (compound 10 µM): 80% and 74.5% and 68%
